System: RA patients
Test: Atherogenic index, Study 1 (RA patients, add-on to MTX)
Assay type: in vivo, human
Experimental: As used herein, the term ‘atherogenic index’ refers to
Double-blind, placebo-controlled add on study in subjects with moderately to severely active RA who have an inadequate response to methotrexate (MTX) (oral or parenteral).
Compound 1 (dosed as a [Compound 1:HCl:3H2O]) is dosed for twelve weeks once daily (q.d.) (50 mg, 100 mg or 200 mg) or twice daily (b.i.d.) (25 mg, 50 mg or 100 mg); or placebo.
At Week 12, the subjects on placebo who have not achieved 20% improvement in swollen joint count (SJC66) and tender joint count (TJC68) are re-randomized automatically to receive Compound 1 (dosed as a [Compound 1:HCl:3H2O]) either at 100 mg q.d. or 50 mg b.i.d. doses in a blinded fashion; subjects on 50 mg q.d. who have not achieved 20% improvement in SJC66 and TJC68 will be assigned to 100 mg q.d. and subjects on 25 mg b.i.d. that have not achieved a 20% improvement in SJC66 and TJC68 will be assigned to 50 mg b.i.d. Subjects who switch treatment at week 12 are handled as if they discontinued at week 12 for the purpose of statistical analysis, whereas subjects in the other groups will maintain their randomized treatment until Week 24.
The atherogenic index has been identified to be a good predictor of cardiovascular disorders risks and is calculated as follows: […]

[1] = 25 mg b.i.d continued over 24 weeks, week 1
[2] = 25 mg b.i.d continued over 24 weeks, week 2
[3] = 25 mg b.i.d continued over 24 weeks, week 4
[4] = 25 mg b.i.d continued over 24 weeks, week 8
[5] = 25 mg b.i.d continued over 24 weeks, week 12
[6] = 25 mg b.i.d continued over 24 weeks, week 16
[7] = 25 mg b.i.d continued over 24 weeks, week 20
[8] = 25 mg b.i.d continued over 24 weeks, week 24
[9] = 50 mg b.i.d. continued over 24 weeks, week 1
[10] = 50 mg b.i.d. continued over 24 weeks, week 2
[11] = 50 mg b.i.d. continued over 24 weeks, week 4
[12] = 50 mg b.i.d. continued over 24 weeks, week 8
[13] = 50 mg b.i.d. continued over 24 weeks, week 12
[14] = 50 mg b.i.d. continued over 24 weeks, week 16
[15] = 50 mg b.i.d. continued over 24 weeks, week 20
[16] = 50 mg b.i.d. continued over 24 weeks, week 24
[17] = 50 mg q.d. continued over 24 weeks, week 1
[18] = 50 mg q.d. continued over 24 weeks, week 2
[19] = 50 mg q.d. continued over 24 weeks, week 4
[20] = 50 mg q.d. continued over 24 weeks, week 8
[21] = 50 mg q.d. continued over 24 weeks, week 12
[22] = 50 mg q.d. continued over 24 weeks, week 16
[23] = 50 mg q.d. continued over 24 weeks, week 20
[24] = 50 mg q.d. continued over 24 weeks, week 24

SMILES: O=C(Nc1nc2cccc(-c3ccc(CN4CCS(=O)(=O)CC4)cc3)n2n1)C1CC1 [Compound 1, cyclopropanecarboxylic acid {5-[4-(1,1-dioxo-thiomorpholin-4-ylmethyl)-phenyl]-[1,2,4]triazolo[1,5-a]pyridin-2yl}-amide]
- Atherogenic index Mean CFB - 24 weeks results [1]: 0.08 mmol/L
- Atherogenic index Mean percentage CFB - 24 weeks results [1]: 2.78%
- Atherogenic index Median CFB - 24 weeks results [1]: 0.10 mmol/L
- Atherogenic index Mean CFB - 24 weeks results [2]: -0.01 mmol/L
- Atherogenic index Mean percentage CFB - 24 weeks results [2]: 0.75%
- Atherogenic index Median CFB - 24 weeks results [2]: 0.00 mmol/L
- Atherogenic index Mean CFB - 24 weeks results [3]: -0.02 mmol/L
- Atherogenic index Mean percentage CFB - 24 weeks results [3]: 0.43%
- Atherogenic index Median CFB - 24 weeks results [3]: 0.00 mmol/L
- Atherogenic index Mean CFB - 24 weeks results [4]: -0.05 mmol/L
- Atherogenic index Mean percentage CFB - 24 weeks results [4]: −0.86%
- Atherogenic index Median CFB - 24 weeks results [4]: -0.10 mmol/L
- Atherogenic index Mean CFB - 24 weeks results [5]: 0.05 mmol/L
- Atherogenic index Mean percentage CFB - 24 weeks results [5]: 2.68%
- Atherogenic index Median CFB - 24 weeks results [5]: 0.00 mmol/L
- Atherogenic index Mean CFB - 24 weeks results [6]: -0.03 mmol/L
- Atherogenic index Mean percentage CFB - 24 weeks results [6]: 0.32%
- Atherogenic index Median CFB - 24 weeks results [6]: 0.00 mmol/L
- Atherogenic index Mean CFB - 24 weeks results [7]: 0.09 mmol/L
- Atherogenic index Mean percentage CFB - 24 weeks results [7]: 4.42%
- Atherogenic index Median CFB - 24 weeks results [7]: 0.00 mmol/L
- Atherogenic index Mean CFB - 24 weeks results [8]: 0.02 mmol/L
- Atherogenic index Mean percentage CFB - 24 weeks results [8]: 2.01%
- Atherogenic index Median CFB - 24 weeks results [8]: 0.00 mmol/L
- Atherogenic index Mean CFB - 24 weeks results [9]: -0.06 mmol/L
- Atherogenic index Mean percentage CFB - 24 weeks results [9]: −0.30%
- Atherogenic index Median CFB - 24 weeks results [9]: 0.00 mmol/L
- Atherogenic index Mean CFB - 24 weeks results [10]: -0.21 mmol/L
- Atherogenic index Mean percentage CFB - 24 weeks results [10]: −4.55%
- Atherogenic index Median CFB - 24 weeks results [10]: -0.10 mmol/L
- Atherogenic index Mean CFB - 24 weeks results [11]: -0.14 mmol/L
- Atherogenic index Mean percentage CFB - 24 weeks results [11]: −2.75%
- Atherogenic index Median CFB - 24 weeks results [11]: -0.10 mmol/L
- Atherogenic index Mean CFB - 24 weeks results [12]: -0.18 mmol/L
- Atherogenic index Mean percentage CFB - 24 weeks results [12]: −3.44%
- Atherogenic index Median CFB - 24 weeks results [12]: -0.10 mmol/L
- Atherogenic index Mean CFB - 24 weeks results [13]: -0.07 mmol/L
- Atherogenic index Mean percentage CFB - 24 weeks results [13]: −0.87%
- Atherogenic index Median CFB - 24 weeks results [13]: 0.00 mmol/L
- Atherogenic index Mean CFB - 24 weeks results [14]: -0.13 mmol/L
- Atherogenic index Mean percentage CFB - 24 weeks results [14]: −2.57%
- Atherogenic index Median CFB - 24 weeks results [14]: -0.10 mmol/L
- Atherogenic index Mean CFB - 24 weeks results [15]: -0.11 mmol/L
- Atherogenic index Median CFB - 24 weeks results [15]: -0.10 mmol/L
- Atherogenic index Mean CFB - 24 weeks results [16]: -0.04 mmol/L
- Atherogenic index Mean percentage CFB - 24 weeks results [16]: 0.23%
- Atherogenic index Median CFB - 24 weeks results [16]: 0.00 mmol/L
- Atherogenic index Mean CFB - 24 weeks results [17]: -0.02 mmol/L
- Atherogenic index Mean percentage CFB - 24 weeks results [17]: −0.40%
- Atherogenic index Median CFB - 24 weeks results [17]: -0.10 mmol/L
- Atherogenic index Mean CFB - 24 weeks results [18]: -0.15 mmol/L
- Atherogenic index Mean percentage CFB - 24 weeks results [18]: −3.84%
- Atherogenic index Median CFB - 24 weeks results [18]: -0.20 mmol/L
- Atherogenic index Mean CFB - 24 weeks results [19]: -0.11 mmol/L
- Atherogenic index Mean percentage CFB - 24 weeks results [19]: −2.94%
- Atherogenic index Median CFB - 24 weeks results [19]: -0.10 mmol/L
- Atherogenic index Mean CFB - 24 weeks results [20]: 0.00 mmol/L
- Atherogenic index Mean percentage CFB - 24 weeks results [20]: 0.36%
- Atherogenic index Median CFB - 24 weeks results [20]: -0.10 mmol/L
- Atherogenic index Mean CFB - 24 weeks results [21]: 0.01 mmol/L
- Atherogenic index Mean percentage CFB - 24 weeks results [21]: 1.11%
- Atherogenic index Median CFB - 24 weeks results [21]: 0.00 mmol/L
- Atherogenic index Mean CFB - 24 weeks results [22]: -0.01 mmol/L
- Atherogenic index Mean percentage CFB - 24 weeks results [22]: 0.09%
- Atherogenic index Median CFB - 24 weeks results [22]: 0.00 mmol/L
- Atherogenic index Mean CFB - 24 weeks results [23]: -0.08 mmol/L
- Atherogenic index Mean percentage CFB - 24 weeks results [23]: −1.32%
- Atherogenic index Median CFB - 24 weeks results [23]: -0.10 mmol/L
- Atherogenic index Mean CFB - 24 weeks results [24]: -0.12 mmol/L
- Atherogenic index Mean percentage CFB - 24 weeks results [24]: −3.08%
- Atherogenic index Median CFB - 24 weeks results [24]: -0.10 mmol/L
- Atherogenic index Mean CFB (50 mg q.d., week 1): -0.02 mmol/L
- Atherogenic index Mean percentage CFB - 12 weeks results (50 mg q.d., week 1): 0%
